These compounds were tested on KM12 cells (assay: Cell viability assay (CellTiter-Glo) in KM12 cells). Conditions: Homo sapiens, 72 h; Table 2; KM12 cell viability, CellTiter-Glo, 3 days; read-out: IC50.
Type: cell-based

Row | SMILES | IC50
1 | Cc1ncsc1-c1ccc(CNC(=O)[C@@H]2C[C@@H](O)CN2C(=O)[C@@H](NC(=O)CCOCCOCCC(=O)N2CCN(c3ccc(C(=O)Nc4n[nH]c5ccc(Cc6cc(F)cc(F)c6)cc45)c(NC4CCOCC4)c3)CC2)C(C)(C)C)cc1 [CPD-038, (2S,4R)-1-((S)-2-(3-(2-(3-(4-(4-((5-(3,5-Difluorobenzyl)-1H-indazol-3-yl)carbamoyl)-3-((tetrahydro-2H-pyran-4-yl)amino)phenyl)piperazin-1-yl)-3-oxopropoxy)ethoxy)propanamido)-3,3-dimethylbutanoyl)-4-hydroxy-N-(4-(4-methylthiazol-5-yl)benzyl)pyrrolidine-2-carboxamide] | 359 nM
2 | Cc1ncsc1-c1ccc(CNC(=O)[C@@H]2C[C@@H](O)CN2C(=O)[C@@H](NC(=O)CCOCCOCCOCCC(=O)N2CCN(c3ccc(C(=O)Nc4n[nH]c5ccc(Cc6cc(F)cc(F)c6)cc45)c(NC4CCOCC4)c3)CC2)C(C)(C)C)cc1 [CPD-039, (2S,4R)-1-((S)-2-(tert-butyl)-16-(4-(4-((5-(3,5-Difluorobenzyl)-1H-indazol-3-yl)carbamoyl)-3-((tetrahydro-2H-pyran-4-yl)amino)phenyl)piperazin-1-yl)-4,16-dioxo-7,10,13-trioxa-3-azahexadecanoyl)-4-hydroxy-N-(4-(4-methylthiazol-5-yl)benzyl)pyrrolidine-2-carboxamide] | 222 nM
3 | Cc1ncsc1-c1ccc(CNC(=O)[C@@H]2C[C@@H](O)CN2C(=O)[C@@H](NC(=O)COCCOCCOCCOCCOCC(=O)N2CCN(c3ccc(C(=O)Nc4n[nH]c5ccc(Cc6cc(F)cc(F)c6)cc45)c(NC4CCOCC4)c3)CC2)C(C)(C)C)cc1 [CPD-040, (2S,4R)-1-((S)-2-(tert-butyl)-20-(4-(4-((5-(3,5-Difluorobenzyl)-1H-indazol-3-yl)carbamoyl)-3-((tetrahydro-2H-pyran-4-yl)amino)phenyl)piperazin-1-yl)-4,20-dioxo-6,9,12,15,18-pentaoxa-3-azaicosanoyl)-4-hydroxy-N-(4-(4-methylthiazol-5-yl)benzyl)pyrrolidine-2-carboxamide] | 600 nM
4 | Cc1ncsc1-c1ccc(CNC(=O)[C@@H]2C[C@@H](O)CN2C(=O)[C@@H](NC(=O)CCOCCOCCOCCOCCC(=O)N2CCN(c3ccc(C(=O)Nc4n[nH]c5ccc(Cc6cc(F)cc(F)c6)cc45)c(NC4CCOCC4)c3)CC2)C(C)(C)C)cc1 [CPD-041, (2S,4R)-1-((S)-2-(tert-butyl)-19-(4-(4-((5-(3,5-Difluorobenzyl)-1H-indazol-3-yl)carbamoyl)-3-((tetrahydro-2H-pyran-4-yl)amino)phenyl)piperazin-1-yl)-4,19-dioxo-7,10,13,16-tetraoxa-3-azanonadecanoyl)-4-hydroxy-N-(4-(4-methylthiazol-5-yl)benzyl)pyrrolidine-2-carboxamide] | 400 nM
5 | Cc1ncsc1-c1ccc(CNC(=O)[C@@H]2C[C@@H](O)CN2C(=O)[C@@H](NC(=O)COCCOCC(=O)N2CCN(c3ccc(C(=O)Nc4n[nH]c5ccc(Cc6cc(F)cc(F)c6)cc45)c(NC4CCOCC4)c3)CC2)C(C)(C)C)cc1 [CPD-042, (2S,4R)-1-((S)-2-(2-(2-(2-(4-(4-((5-(3,5-Difluorobenzyl)-1H-indazol-3-yl)carbamoyl)-3-((tetrahydro-2H-pyran-4-yl)amino)phenyl)piperazin-1-yl)-2-oxoethoxy)ethoxy)acetamido)-3,3-dimethylbutanoyl)-4-hydroxy-N-(4-(4-methylthiazol-5-yl)benzyl)pyrrolidine-2-carboxamide] | > 1000 nM
6 | Cc1ncsc1-c1ccc(CNC(=O)[C@@H]2C[C@@H](O)CN2C(=O)[C@@H](NC(=O)CCOCCOCCOCCOCCOCCC(=O)N2CCN(c3ccc(C(=O)Nc4n[nH]c5ccc(Cc6cc(F)cc(F)c6)cc45)c(NC4CCOCC4)c3)CC2)C(C)(C)C)cc1 [CPD-043, (2S,4R)-1-((S)-2-(tert-butyl)-22-(4-(4-((5-(3,5-Difluorobenzyl)-1H-indazol-3-yl)carbamoyl)-3-((tetrahydro-2H-pyran-4-yl)amino)phenyl)piperazin-1-yl)-4,22-dioxo-7,10,13,16,19-pentaoxa-3-azadocosanoyl)-4-hydroxy-N-(4-(4-methylthiazol-5-yl)benzyl)pyrrolidine-2-carboxamide] | > 1000 nM
7 | Cc1ncsc1-c1ccc(CNC(=O)[C@@H]2C[C@@H](O)CN2C(=O)[C@@H](NC(=O)CCCCC(=O)N2CCN(c3ccc(C(=O)Nc4n[nH]c5ccc(Cc6cc(F)cc(F)c6)cc45)c(NC4CCOCC4)c3)CC2)C(C)(C)C)cc1 [CPD-044, (2S,4R)-1-((S)-2-(6-(4-(4-((5-(3,5-difluorobenzyl)-1H-indazol-3-yl)carbamoyl)-3-((tetrahydro-2H-pyran-4-yl)amino)phenyl)piperazin-1-yl)-6-oxohexanamido)-3,3-dimethylbutanoyl)-4-hydroxy-N-(4-(4-methylthiazol-5-yl)benzyl)pyrrolidine-2-carboxamide] | 73 nM
8 | Cc1ncsc1-c1ccc(CNC(=O)[C@@H]2C[C@@H](O)CN2C(=O)[C@@H](NC(=O)COCC(=O)N2CCN(c3ccc(C(=O)Nc4n[nH]c5ccc(Cc6cc(F)cc(F)c6)cc45)c(NC4CCOCC4)c3)CC2)C(C)(C)C)cc1 [CPD-045, (2S,4R)-1-((S)-2-(2-(2-(4-(4-((5-(3,5-Difluorobenzyl)-1H-indazol-3-yl)carbamoyl)-3-((tetrahydro-2H-pyran-4-yl)amino)phenyl)piperazin-1-yl)-2-oxoethoxy)acetamido)-3,3-dimethylbutanoyl)-4-hydroxy-N-(4-(4-methylthiazol-5-yl)benzyl)pyrrolidine-2-carboxamide] | > 1000 nM
9 | Cc1ncsc1-c1ccc(CNC(=O)[C@@H]2C[C@@H](O)CN2C(=O)[C@@H](NC(=O)CCC(=O)N2CCN(c3ccc(C(=O)Nc4n[nH]c5ccc(Cc6cc(F)cc(F)c6)cc45)c(NC4CCOCC4)c3)CC2)C(C)(C)C)cc1 [CPD-046, (2S,4R)-1-((S)-2-(4-(4-(4-((5-(3,5-Difluorobenzyl)-1H-indazol-3-yl)carbamoyl)-3-((tetrahydro-2H-pyran-4-yl)amino)phenyl)piperazin-1-yl)-4-oxobutanamido)-3,3-dimethylbutanoyl)-4-hydroxy-N-(4-(4-methylthiazol-5-yl)benzyl)pyrrolidine-2-carboxamide] | 700 nM
10 | Cc1ncsc1-c1ccc(CNC(=O)[C@@H]2C[C@@H](O)CN2C(=O)[C@@H](NC(=O)CCCCCC(=O)N2CCN(c3ccc(C(=O)Nc4n[nH]c5ccc(Cc6cc(F)cc(F)c6)cc45)c(NC4CCOCC4)c3)CC2)C(C)(C)C)cc1 [CPD-047, (2S,4R)-1-((S)-2-(7-(4-(4-((5-(3,5-difluorobenzyl)-1H-indazol-3-yl)carbamoyl)-3-((tetrahydro-2H-pyran-4-yl)amino)phenyl)piperazin-1-yl)-7-oxoheptanamido)-3,3-dimethylbutanoyl)-4-hydroxy-N-(4-(4-methylthiazol-5-yl)benzyl)pyrrolidine-2-carboxamide] | 94 nM
11 | Cc1ncsc1-c1ccc(CNC(=O)[C@@H]2C[C@@H](O)CN2C(=O)[C@@H](NC(=O)CCOCCC(=O)N2CCN(c3ccc(C(=O)Nc4n[nH]c5ccc(Cc6cc(F)cc(F)c6)cc45)c(NC4CCOCC4)c3)CC2)C(C)(C)C)cc1 [CPD-048, (2S,4R)-1-((S)-2-(3-(3-(4-(4-((5-(3,5-Difluorobenzyl)-1H-indazol-3-yl)carbamoyl)-3-((tetrahydro-2H-pyran-4-yl)amino)phenyl)piperazin-1-yl)-3-oxopropoxy)propanamido)-3,3-dimethylbutanoyl)-4-hydroxy-N-(4-(4-methylthiazol-5-yl)benzyl)pyrrolidine-2-carboxamide] | > 1000 nM
